Measurements from patent publication US20140303164A1, “THERAPEUTIC COMPOUNDS” (Gilead Sciences, Inc., priority 2013, published 2014).

System: HIV-IIIb
Assay: Test A: Antiviral Assay in MT4 Cells
Assay type: cell-based, HIV-1
Settings: for inhibition at 0.2 µM / inhibition at 2 µM: Human immunodeficiency virus 1, IIIB, MT4, 120 h; for inhibition at 0.2 µM: read-out: % inhibition at 0.2 μM; for inhibition at 2 µM: read-out: % inhibition at 2 μM
Experimental: Test A: Antiviral Assay in MT4 Cells
MT-4 cells were next mixed with HIV-IIIb at an m.o.i of 0.003 for 1 hour, after which time 35 μL of virus/cell mixture (2000 cells) was immediately added to each well containing 40 μL of diluted compound. The plates were then incubated at 37° C. for 5 days. […] Cell lysis was carried out by incubating at room temperature for 10 min and then chemiluminescence was read.

Structure (SMILES)	inhibition at 0.2 µM	Response at 0.2 μM (percent inhibition of virus-induced cell killing at 0.2 μM, comparison with previously published compounds (WO 2013/006738))	Response at 2 μM (percent inhibition of virus-induced cell killing at 2 μM, comparison with previously published compounds (WO 2013/006738))	inhibition at 2 µM
CC(C)(O)C#Cc1ccc(-c2cccc3c(=O)[nH]c(=O)[nH]c23)c([C@H](Cc2cc(F)cc(F)c2)NC(=O)Cn2nc(C(F)(F)F)c3c2C(F)(F)[C@@H]2C[C@H]32)n1 [Compound 17, 2-((3bS,4aR)-5,5-difluoro-3-(trifluoromethyl)-3b,4,4a,5-tetrahydro-1H-cyclopropa[3,4]cyclopenta[1,2-c]pyrazol-1-yl)-N—((S)-2-(3,5-difluorophenyl)-1-(3-(2,4-dioxo-1,2,3,4-tetrahydroquinazolin-8-yl)-6-(3-hydroxy-3-methylbut-1-ynyl)pyridin-2-yl)ethyl)acetamide]	95%			
CC(C)(O)C#Cc1ccc(-c2ccc(F)c(C(N)=O)c2)c([C@H](Cc2cc(F)cc(F)c2)NC(=O)Cn2nc(C(F)(F)F)c3c2C(F)(F)[C@@H]2C[C@H]32)n1 [Compound 18, 5-(2-((S)-1-(2-((3bS,4aR)-5,5-difluoro-3-(trifluoromethyl)-3b,4,4a,5-tetrahydro-1H-cyclopropa[3,4]cyclopenta[1,2-c]pyrazol-1-yl)acetamido)-2-(3,5-difluorophenyl)ethyl)-6-(3-hydroxy-3-methylbut-1-yn-1-yl)pyridin-3-yl)-2-fluorobenzamide]		96%	90%	
Cn1nc(NS(C)(=O)=O)c2c(Cl)ccc(-c3ccc(C#CC(C)(C)O)nc3[C@H](Cc3cc(F)cc(F)c3)NC(=O)Cn3nc(C(F)F)c4c3C(F)(F)[C@@H]3C[C@H]43)c21 [Compound 19G, (S)—N-(1-(3-(4 chloro-1-methyl-3-(methylsulfonamido)-1H-indazol-7-yl)-6-(3-hydroxy-3-methylbut-1-ynyl)pyridin-2-yl)-2-(3,5-difluorophenyl)ethyl)-2-((3bS,4aR)-5,5-difluoro-3-(difluoromethyl)-3b,4,4a,5-tetrahydro-1H-cyclopropa[3,4]cyclopenta[1,2-c]pyrazol-1-yl)acetamide]	97%			93%
Cn1nc(NS(C)(=O)=O)c2c(F)ccc(-c3ccc(C#CC(C)(C)O)nc3[C@H](Cc3cc(F)cc(F)c3)NC(=O)Cn3nc(C(F)F)c4c3C(F)(F)[C@@H]3C[C@H]43)c21 [Compound 75, 2-((3b-S,4aR)-3-(difluoromethyl)-5,5-difluoro-3b,4,4a,5-tetrahydro-1H-cyclopropa[3,4]cyclopenta[1,2-c]pyrazol-1-yl)-N—((S)-2-(3,5-difluorophenyl)-1-(3-(4-fluoro-1-methyl-3-(methylsulfonamido)-1H-indazol-7-yl)-6-(3-hydroxy-3-methylbut-1-yn-1-yl)pyridin-2-yl)ethyl)acetamide]	92%			93%
Cn1nc(NS(C)(=O)=O)c2c(Cl)ccc(-c3ccc(C#CC(C)(C)O)nc3[C@H](Cc3cc(F)cc(F)c3)NC(=O)Cn3nc(C(F)(F)F)c4c3C(F)(F)[C@@H]3C[C@H]43)c21 [Compound 78, N—((S)-1-(3-(4-chloro-1-methyl-3-(methylsulfonamido)-1H-indazol-7-yl)-6-(3-hydroxy-3-methylbut-1-yn-1-yl)pyridin-2-yl)-2-(3,5-difluorophenyl)ethyl)-2-((3b-S,4aR)-5,5-difluoro-3-(trifluoromethyl)-3b,4,4a,5-tetrahydro-1H-cyclopropa[3,4]cyclopenta[1,2-c]pyrazol-1-yl)acetamide]	98%			98%
Cc1ccc(-c2ccc(C#CC(C)(C)O)nc2[C@H](Cc2cc(F)cc(F)c2)NC(=O)Cn2nc(C(F)F)c3c2C(F)(F)[C@@H]2C[C@H]32)c2c1c(NS(C)(=O)=O)nn2C [Compound 112D, 2-((3b-S,4aR)-3-(difluoromethyl)-5,5-difluoro-3b,4,4a,5-tetrahydro-1H-cyclopropa[3,4]cyclopenta[1,2-c]pyrazol-1-yl)-N—((S)-2-(3,5-difluorophenyl)-1-(3-(1,4-dimethyl-3-(methylsulfonamido)-1H-indazol-7-yl)-6-(3-hydroxy-3-methylbut-1-yn-1-yl)pyridin-2-yl)ethyl)acetamide]	97%			97%
Cn1nc(NS(C)(=O)=O)c2c(Cl)ccc(-c3ccc(C#CC(C)(C)N)nc3[C@H](Cc3cc(F)cc(F)c3)NC(=O)Cn3nc(C(F)F)c4c3C(F)(F)[C@@H]3C[C@H]43)c21 [Compound 127, N—((S)-1-(6-(3-amino-3-methylbut-1-yn-1-yl)-3-(4-chloro-1-methyl-3-(methylsulfonamido)-1H-indazol-7-yl)pyridin-2-yl)-2-(3,5-difluorophenyl)ethyl)-2-((3bS,4aR)-3-(difluoromethyl)-5,5-difluoro-3b,4,4a,5-tetrahydro-1H-cyclopropa[3,4]cyclopenta[1,2-c]pyrazol-1-yl)acetamide]	92%			92%
COc1ccc(-c2ccc(C#CC(C)(C)O)nc2[C@H](Cc2cc(F)cc(F)c2)NC(=O)Cn2nc(C(F)F)c3c2C(F)(F)[C@@H]2C[C@H]32)c2c1c(NS(C)(=O)=O)nn2C [Compound 141D, 2-((3b-S,4aR)-3-(difluoromethyl)-5,5-difluoro-3b,4,4a,5-tetrahydro-1H-cyclopropa[3,4]cyclopenta[1,2-c]pyrazol-1-yl)-N—((S)-2-(3,5-difluorophenyl)-1-(6-(3-hydroxy-3-methylbut-1-yn-1-yl)-3-(4-methoxy-1-methyl-3-(methylsulfonamido)-1H-indazol-7-yl)pyridin-2-yl)ethyl)acetamide]	100%			100%
Cn1nc(NS(C)(=O)=O)c2c(Cl)ccc(-c3ccc(C#CC(C)(O)C(F)F)nc3[C@H](Cc3cc(F)cc(F)c3)NC(=O)Cn3nc(C(F)F)c4c3C(F)(F)[C@@H]3C[C@H]43)c21 (stereo partly drawn) [Compound 169, N-((1S)-1-(3-(4-chloro-1-methyl-3-(methylsulfonamido)-1H-indazol-7-yl)-6-(4,4-difluoro-3-hydroxy-3-methylbut-1-yn-1-yl)pyridin-2-yl)-2-(3,5-difluorophenyl)ethyl)-2-((3b-S,4aR)-3-(difluoromethyl)-5,5-difluoro-3b,4,4a,5-tetrahydro-1H-cyclopropa[3,4]cyclopenta[1,2-c]pyrazol-1-yl)acetamide]	92%			92%
Cn1nc(N[S+](C)[O-])c2c(Cl)ccc(-c3ccc(C#CC(C)(C)O)nc3[C@H](Cc3cc(F)cc(F)c3)NC(=O)Cn3nc(C(F)F)c4c3C(F)(F)[C@@H]3C[C@H]43)c21 (stereo partly drawn) [Compound 180C, N-((1S)-1-(3-(4-chloro-1-methyl-3-(methylsulfinamido)-1H-indazol-7-yl)-6-(3-hydroxy-3-methylbut-1-yn-1-yl)pyridin-2-yl)-2-(3,5-difluorophenyl)ethyl)-2-((3b-S,4aR)-3-(difluoromethyl)-5,5-difluoro-3b,4,4a,5-tetrahydro-1H-cyclopropa[3,4]cyclopenta[1,2-c]pyrazol-1-yl)acetamide]	100%			100%
